Literature values, collected in patent publication US20070021605A1, “PROCESS AND COMPOSITION FOR MAKING OLANZAPINE FORM I” (priority 2005, published 2007).

Conditions: water, pH 6.8; free base

Structure (SMILES): Cc1cc2c(s1)Nc1ccccc1N=C2N1CCN(C)CC1 [Olanzapine]
- solubility: about 0.02 mg/ml
